The values below are quoted from earlier work in US9682081B2, “Pharmaceutical gastro-retentive solid oral dosage form of nilotinib” (SUN PHARMACEUTICAL INDUSTRIES LIMITED, priority 2013, dated 2017).

The conditions of data set [1]: Class IV means low/moderate aqueous solubility and low permeability.
For data set [2] the following is noted: 25° C., pH 4.5 and higher.

For `Cc1cn(-c2cc(NC(=O)c3ccc(C)c(Nc4nccc(-c5cccnc5)n4)c3)cc(C(F)(F)F)c2)cn1` [Nilotinib, 4-methyl-N-[3-(4-methyl-1H-imidazol-1-yl)-5-(trifluoromethyl)phenyl]-3-[[4-(3-pyridinyl)-2-pyrimidinyl]amino]-benzamide], the “Biopharmaceutical Classification System (BCS) class” value in data set [1] was “Class IV”. For the same compound, the “solubility in aqueous solutions” value in data set [2] is listed as “practically insoluble”.
